Reference: patent US4966900A, “Cephalosporin β-lactam compound and medicinal composition” (priority 1986, dated 1990)
In brackets after ≈: the same amount, converted by molar mass. Counter-ions that a name gives are not always drawn.

Experiments:
Experiment in all cases: MIC
E. cloacae 1V247 = assay type: cell-based; settings: Enterobacter cloacae, Table 8
Method: (§1) The minimum inhibition concentrations (MIC) of the compounds obtained in the respective examples described above were measured according to the standard method of Japanese Chemotherapy Association.

S. aureus IAA498 = assay type: cell-based; settings: Staphylococcus aureus, Table 7
Method: as §1

S. aureus Smith = settings: Staphylococcus aureus, Table 7
E. coli ML4707 = settings: Escherichia coli, ML4707, E. coli ML4707; Table 7
E. coli GN5482 = settings: Escherichia coli, GN5482, E. coli GN5482; Table 7
K. pneumoniae 4at521 = settings: Klebsiella pneumoniae, 4AT521
E. colacae GN7471 = settings: Table 7
E. cloacae 908RN = settings: Enterobacter cloacae, E. colacae 908RN, Table 7
C. freundii GN7391 = settings: Citrobacter freundii, GN7391, C. freundii GN7391; Table 7
S. marcescens GN10857 = settings: Serratia marcescens, GN10857, S. marcescens GN10857; Table 7
P. vulgaris GN7919 = settings: Proteus vulgaris, GN7919
P. aeruginosa GN10362 = settings: Pseudomonas aeruginosa, GN10362
P. aeruginosa 4au542 = settings: Pseudomonas aeruginosa, 4AU542, P. aeruginosa 4au542; Table 7
P. aeruginosa 5D58-1 = settings: Pseudomonas aeruginosa, 5D581, P. aeruginosa 5D58-1; Table 7
P. cepacia OF189 = settings: Burkholderia cepacia, OF189, P. cepacia OF189; Table 7
P. maltophilia OF247 = settings: Stenotrophomonas maltophilia, Table 7
E. cloacae 5D52-2 = settings: Enterobacter cloacae, 5D522
E. cloacae 5D63-2 = settings: Enterobacter cloacae, 5D632
E. cloacae 1V25 = settings: Enterobacter cloacae
C. freundii 5D60-1 = settings: Citrobacter freundii, 5D601
C. freundii 1R523 = settings: Citrobacter freundii, 1R523
C. freundii 1R524 = settings: Citrobacter freundii, 1R524
C. freundii 1R526 = settings: Citrobacter freundii, 1R526
C. freundii 1R527 = settings: Citrobacter freundii, 1R527
C. freundii 1U589 = settings: Citrobacter freundii, 1U589
C. freundii 1U692 = settings: Citrobacter freundii, 1U692

SMILES	MIC (E. cloacae 1V247) [µg/mL]	MIC (S. aureus IAA498) [µg/mL]	MIC (S. aureus Smith) [µg/mL]	MIC (E. coli ML4707) [µg/mL]	MIC (E. coli GN5482) [µg/mL]	MIC (K. pneumoniae 4at521) [µg/mL]	MIC (E. colacae GN7471) [µg/mL]	MIC (E. cloacae 908RN) [µg/mL]	MIC (C. freundii GN7391) [µg/mL]	MIC (S. marcescens GN10857) [µg/mL]	MIC (P. vulgaris GN7919) [µg/mL]	MIC (P. aeruginosa GN10362) [µg/mL]	MIC (P. aeruginosa 4au542) [µg/mL]	MIC (P. aeruginosa 5D58-1) [µg/mL]	MIC (P. cepacia OF189) [µg/mL]	MIC (P. maltophilia OF247) [µg/mL]	MIC (E. cloacae 5D52-2) [µg/mL]	MIC (E. cloacae 5D63-2) [µg/mL]	MIC (E. cloacae 1V25) [µg/mL]	MIC (C. freundii 5D60-1) [µg/mL]	further results
CC(=O)Oc1ccc(C(=O)NNC(=O)C(C)(C)ON=C(C(=O)NC2C(=O)N3C(C(=O)O)=C(CSc4cc(C)nc5nc(C(=O)O)nn45)CS[C@H]23)c2csc(N)n2)cc1OC(C)=O (stereo partly drawn) [Example 45, 7-{2-[2-Amino-1,3-thiazol-4-yl]-2-[1-(3-(3,4-diacetoxybenzoyl)carbazoyl)-1-methylethoxyimino]acetamido}-3-[(2-carboxy-5-methyl-s-triazolo[1,5-a]pyrimidin-7-yl)thiomethyl]-3-cephem-4-carboxylic acid]	6.25 (≈ 6.85 µM)	25 (≈ 27.4 µM)	12.5 (≈ 13.7 µM)	0.05 (≈ 0.0548 µM)	0.05 (≈ 0.0548 µM)	0.05 (≈ 0.0548 µM)	1.56 (≈ 1.71 µM)	1.56 (≈ 1.71 µM)	12.5 (≈ 13.7 µM)	1.56 (≈ 1.71 µM)	3.13 (≈ 3.43 µM)	0.2 (≈ 0.219 µM)	0.2 (≈ 0.219 µM)	0.1 (≈ 0.11 µM)	0.012 (≈ 0.0132 µM)	1.56 (≈ 1.71 µM)	0.39 (≈ 0.428 µM)	0.78 (≈ 0.855 µM)	6.25 (≈ 6.85 µM)	3.13 (≈ 3.43 µM)	MIC (C. freundii 1R523): 0.78 µg/mL (≈ 0.855 µM); MIC (C. freundii 1R524): 0.78 µg/mL (≈ 0.855 µM); MIC (C. freundii 1R526): 1.56 µg/mL (≈ 1.71 µM); MIC (C. freundii 1R527): 3.13 µg/mL (≈ 3.43 µM); MIC (C. freundii 1U589): 3.13 µg/mL (≈ 3.43 µM); MIC (C. freundii 1U692): 1.56 µg/mL (≈ 1.71 µM)
Cc1cc(SCC2=C(C(=O)O)N3C(=O)C(NC(=O)C(=NOC(C)(C)C(=O)NNC(=O)c4ccc(O)c(O)c4)c4csc(N)n4)[C@H]3SC2)n2nc(C)cc2n1 (stereo partly drawn) [Example 57, 7-{2-[2-Amino-1,3-thiazol-4-yl]-2-[1-(3-(3,4-dihydroxybenzoyl)carbazoyl)-1-methylethoxyimino]acetamido}-3-[(2,5-dimethylpyrazolo[1,5-a]pyrimidin-7yl)thiomethyl]-3-cephem-4-carboxylic acid]	6.25 (≈ 7.84 µM)	3.13 (≈ 3.93 µM)	1.56 (≈ 1.96 µM)	< 0.006	< 0.006	0.012 (≈ 0.0151 µM)	1.56 (≈ 1.96 µM)	0.39 (≈ 0.489 µM)	3.13 (≈ 3.93 µM)	1.56 (≈ 1.96 µM)	0.78 (≈ 0.979 µM)	0.1 (≈ 0.125 µM)	0.1 (≈ 0.125 µM)	0.1 (≈ 0.125 µM)	0.012 (≈ 0.0151 µM)	1.56 (≈ 1.96 µM)	0.1 (≈ 0.125 µM)	0.39 (≈ 0.489 µM)	6.25 (≈ 7.84 µM)	1.56 (≈ 1.96 µM)	MIC (C. freundii 1R523): 0.2 µg/mL (≈ 0.251 µM); MIC (C. freundii 1R524): 0.2 µg/mL (≈ 0.251 µM); MIC (C. freundii 1R526): 1.56 µg/mL (≈ 1.96 µM); MIC (C. freundii 1R527): 3.13 µg/mL (≈ 3.93 µM); MIC (C. freundii 1U589): 3.13 µg/mL (≈ 3.93 µM); MIC (C. freundii 1U692): 1.56 µg/mL (≈ 1.96 µM)
CC(=O)Oc1ccc(C(=O)NNC(=O)C(C)(C)ON=C(C(=O)NC2C(=O)N3C(C(=O)O)=C(CSc4cc(C)nc5c(C(=O)O)cnn45)CSC23)c2csc(N)n2)cc1OC(C)=O (stereo not drawn) [Example 53, 7-{2-[2-amino-1,3-thiazol-4-yl]-2-[1-(3-(3,4-diacetoxybenzoyl)carbazoyl)-1-methylethoxyimino]acetamido}-3-[(3-carboxy-5-methylpyrazolo[1,5-a]pyrimidin-7-yl)thiomethyl-3-cephem-4-carboxylic acid sodium salt]	12.5	12.5	12.5	0.012	0.012	0.012	0.78	0.78	6.25	0.78	1.56	0.05	0.05	0.1	< 0.006	0.78	0.1	0.39	6.25	3.13	MIC (C. freundii 1R523): 0.78 µg/mL; MIC (C. freundii 1R524): 0.78 µg/mL; MIC (C. freundii 1R526): 0.78 µg/mL; MIC (C. freundii 1R527): 0.78 µg/mL; MIC (C. freundii 1U589): 3.13 µg/mL; MIC (C. freundii 1U692): 1.56 µg/mL
